Residues, ends and D or L forms follow the SMILES beside them. No end group written: not given here.
How the values were obtained:
serum LH = assay: Acute effect of intravenous injection on serum LH (radioimmunoassay); type: in vivo; conditions: rats, intravenous 5.0 micrograms, as LH-RP-2 standard
Protocol: (§1) For intravenous peptide injections anesthetized rats were fitted surgically with indwelling intra-arterial cannulae 24 hours before the tests. The next day samples of arterial blood were withdrawn from the unanesthetized rats immediately before and after the injection of graded doses of the pineal antigonadotropin. Prolactin and LH were measured in the blood samples by standard double antibody radioimmunoassay with kits provided by the National Hormone and Pituitary Program. The acute effects of 5.0 micrograms of the antigonadotropin are illustrated in the table below:
(§2) Values for LH are expressed as the National Institutes of Health reference standard LH-RP-2. Means±S.E.M. are indicated (n=5)

serum PRL = assay: Acute effect of intravenous injection on serum PRL (radioimmunoassay); type: in vivo; conditions: rats, intravenous 5.0 micrograms
Protocol: as §1, §2

[1] = system: rat hypothalamic median eminence strips; assay: Dopamine release from hypothalamic median eminence strips in vitro; conditions: for Release of dopamine from rat hypothalamus in vitro (in words): median eminence strips
Protocol: Rat hypothalamic median eminence strips were rapidly dissected and placed in culture plates containing 100 μl of a Kreb's solution saturated with O2 in accord with the procedure described in Racke, K. and E. Muscholl, J. of Neurochemistry 46:745, 1986. The median eminence strips were maintained at 37° C. under 95% O2 /5%CO2 in a Dubnoff shaking incubator. The media were replaced after a ten minute pre-incubation period. 50 μl samples were taken at 30, 60 and 90 min of incubation for catecholamine determination, with replacement of the removed media. 20 μl of 0.1M perchloric acid were added to each sample before storage at -20°. Media contents of dopamine, norepinephrine and various indoleamine and catecholamine metabolites were determined by HPLC coupled with electrochemical detection in accord with the procedure described in Gregory, V. M., B. Larsen and B. Benson, J. of Chromatography 345:140-144,1985.

[2] = system: pituitary secretion of LH and PRL; assay: Intravenous or intracerebroventricular injections: pituitary secretion of LH and PRL; type: in vivo
[3] = system: male and female rats and mice; assay: Antigonadotropic effects after chronic daily subcutaneous injection; type: in vivo; conditions: two to four weeks
Protocol: The neurotropic pineal antigonadotropin of the present invention was assayed in vivo, as is described below. Natural and synthetic analogs were injected into male and female rats and mice in graded doses. Antigonadotropic effects were assessed after a period of chronic daily subcutaneous injection in a variety of solvents/carriers, e.g. physiological saline or corn oil. […] Additionally, blood levels of the gonadal steroids (testosterone in males and estrogens in females) were reduced.

[4] = system: anterior pituitary dopamine content; assay: Acute effect of a single subcutaneous injection on anterior pituitary dopamine content; type: in vivo; conditions: mice; for Pituitary dopamine content: single subcutaneous injection of 25 nanograms

Compound	Serum LH (serum LH; postinjection time 0')	Serum LH (serum LH; postinjection time 15')	Serum LH (serum LH; postinjection time 30')	Serum LH (serum LH; postinjection time 45')	Serum LH (serum LH; postinjection time 60')	Serum PRL (serum PRL; postinjection time 0')	Serum PRL (serum PRL; postinjection time 15')	Serum PRL (serum PRL; postinjection time 30')	Serum PRL (serum PRL; postinjection time 45')	Serum PRL (serum PRL; postinjection time 60')	also measured
C[C@@H](O)[C@H](NC(=O)[C@H](CCCCN)NC(=O)[C@@H](NC(=O)[C@@H](NC(=O)[C@@H]1CCCN1C(=O)[C@H](Cc1ccccc1)NC(=O)[C@@H](N)CO)[C@@H](C)O)[C@@H](C)O)C(=O)N[C@@H](Cc1ccc(O)cc1)C(=O)N[C@@H](Cc1ccccc1)C(=O)N1CCC[C@H]1C(=O)O [PAG (1), NH2 -Ser-Phe-Pro-Thr-Thr-Lys-Thr-Tyr-Phe-Pro-COOH] (H-SFPTTKTYFP-OH)	0.25 ng/mL	0.21 ng/mL	0.15 ng/mL	0.10 ng/mL	0.14 ng/mL	100 ± 11 % of Initial Control Value	55 ± 6 % of Initial Control Value	38 ± 6 % of Initial Control Value	31 ± 4 % of Initial Control Value	22 ± 5 % of Initial Control Value	
C[C@@H](O)[C@H](NC(=O)[C@H](CCCCN)NC(=O)[C@@H](NC(=O)[C@@H](NC(=O)[C@@H]1CCCN1C(=O)[C@H](Cc1ccccc1)NC(=O)[C@@H](N)CO)[C@@H](C)O)[C@@H](C)O)C(=O)N[C@@H](Cc1ccc(O)cc1)C(=O)N[C@@H](Cc1ccccc1)C(=O)N1CCC[C@H]1C(=O)O [PAG (2), NH2 -Ser-Phe-Pro-Thr-Thr-Lys-Thr-Tyr-Phe-Pro-COOH] (H-SFPTTKTYFP-OH)	0.26 ng/mL	0.20 ng/mL	0.15 ng/mL	0.12 ng/mL	0.11 ng/mL	100 ± 8 % of Initial Control Value	44 ± 6 % of Initial Control Value	30 ± 3 % of Initial Control Value	25 ± 3 % of Initial Control Value	32 ± 6 % of Initial Control Value	Release of dopamine from rat hypothalamus in vitro (in words) ([1]; listed as synthetic decapeptide): effectively stimulates the release of dopamine into the incubation medium
SFPTTKTYFP [PAG, NH2 -Ser-Phe-Pro-Thr-Thr-Lys-Thr-Tyr-Phe-Pro-COOH]											Release of pituitary LH (pulsatile) ([2]; intracerebroventricular infusions): inhibited release of pituitary LH, reducing both the amplitude and frequency of pulsatile LH release into the blood; Pituitary secretion of LH and PRL ([2]; intravenous or intracerebroventricular injections): demonstrable inhibitory effects on pituitary secretion of LH and PRL; Pituitary and blood levels of gonadotropins and prolactin [3]: reductions of pituitary and blood levels of gonadotropins and prolactin; Pituitary, gonadal and accessory reproductive organ weights [3]: significant reductions in pituitary, gonadal and accessory reproductive organ weights; Anterior pituitary dopamine content (in words) ([4]; single injection of 25 nanograms): significant increase in anterior pituitary dopamine content; Pituitary dopamine content ([4]; postinjection time 0'): 0.539 ± 0.046 nanograms per mg of pituitary; Pituitary dopamine content ([4]; postinjection time 15'): 0.795 ± 0.064 nanograms per mg of pituitary; Pituitary dopamine content ([4]; postinjection time 30'): 1.801 ± 0.126 nanograms per mg of pituitary; Dopamine released into the incubation medium (accumulative) ([1]; 10^-5 M, incubation time 30'): 35.2 ± 7.6 pg/µL; Dopamine released into the incubation medium (accumulative) ([1]; 10^-5 M, incubation time 60'): 100.2 ± 13 pg/µL; Dopamine released into the incubation medium (accumulative) ([1]; 10^-5 M, incubation time 90'): 182.9 ± 13.7 pg/µL; Dopamine released into the incubation medium (accumulative) ([1]; 10^-7 M, incubation time 30'): 27.2 ± 2.1 pg/µL; Dopamine released into the incubation medium (accumulative) ([1]; 10^-7 M, incubation time 60'): 61.5 ± 5.3 pg/µL; Dopamine released into the incubation medium (accumulative) ([1]; 10^-7 M, incubation time 90'): 109.3 ± 10.8 pg/µL; Release of dopamine from rat hypothalamus in vitro (in words) ([1]; listed as pineal antigonadotropic decapeptide): stimulates the release of dopamine
